Tests used:
Trypanosoma cruzi [1] = assay: Trypanocidal activity against bloodstream trypomastigote stage of Trypanosoma cruzi Y after 24 hrs by Neubauer chamber method; assay type: functional
[2] = Cytotoxicity against human PBMC assessed as decrease in cell viability after 72 hrs by MTT assay; assay type: toxicity, cell-based; conditions: PBMC (peripheral blood mononuclear cells)
[3] = Cytotoxicity against human PC3 cells assessed as decrease in cell viability after 72 hrs by MTT assay; assay type: functional, cell-based; conditions: PC-3, 72 h
[4] = Cytotoxicity against human HCT116 cells assessed as decrease in cell viability after 72 hrs by MTT assay; assay type: functional, cell-based; conditions: HCT-116, 72 h
[5] = Cytotoxicity against human HL60 cells assessed as decrease in cell viability after 72 hrs by MTT assay; assay type: functional, cell-based; conditions: HL-60, 72 h
[6] = Cytotoxicity against human MDA-MB-435 cells assessed as decrease in cell viability after 72 hrs by MTT assay; assay type: functional, cell-based; conditions: MDA-MB-435, 72 h
[7] = Cytotoxicity against human SF295 cells assessed as decrease in cell viability after 72 hrs by MTT assay; assay type: functional, cell-based; conditions: SF-295, 72 h
Trypanosoma cruzi [8] = assay: Trypanocidal activity against bloodstream form of Trypanosoma cruzi after 24 hrs; assay type: functional
PC-3 = assay: Selectivity index, ratio of IC50 for human PBMC to IC50 for human PC3 cells
HCT-116 = assay: Selectivity index, ratio of IC50 for human PBMC to IC50 for human HCT116 cells
HL-60 = assay: Selectivity index, ratio of IC50 for human PBMC to IC50 for human HL60 cells
[9] = Selectivity index, ratio of IC50 for human PBMC to IC50 for human MDA-MB-435 cells
SF-295 = assay: Selectivity index, ratio of IC50 for human PBMC to IC50 for human SF295 cells

SMILES | IC50 (Trypanosoma cruzi [1]) [µM] | IC50 at 72 h [2] [µM] | IC50 [3] [µM] | IC50 [4] [µM] | IC50 [5] [µM] | IC50 [6] [µM] | IC50 [7] [µM] | IC50 (Trypanosoma cruzi [8]) [µM] | Ratio IC50 (PC-3) | Ratio IC50 (HCT-116) | Ratio IC50 (HL-60) | Ratio IC50 [9] | Ratio IC50 (SF-295)
CC1(C)CC(n2nnc(-c3ccccc3)c2I)C2=C(O1)C(=O)c1ccccc1C2=O (configuration not stated) | > 1000 | > 9.78 | > 9.78 | > 9.78 | > 9.78 | > 9.78 | > 9.78 | – | – | – | – | – | –
O=C1C(=O)c2ccccc2C2=C1CC(Cn1cc(C3CCCCC3)nn1)O2 (configuration not stated) | – | 5.17 | 2.55 | 2.17 | 2.25 | 1.21 | 1.89 | 214 | – | – | – | – | –
CC1(C)CCC2=C(O1)c1ccccc1C(=O)C2=O [LAPACHONE] | 392 | – | – | – | – | – | – | – | – | – | – | – | –
CC1(C)CC(n2cc(-c3ccccc3)nn2)C2=C(O1)C(=O)c1ccccc1C2=O (configuration not stated) | > 1000 | > 13 | > 13 | 9.63 | 7.94 | > 13 | > 13 | – | – | – | – | – | –
O=C1C(=O)c2ccccc2C2=C1CC(Cn1nnc(-c3ccccc3)c1I)O2 (configuration not stated) | > 1000 | 3.68 | 2.17 | 4.16 | 2.38 | 5.65 | 3.68 | – | – | – | – | – | –
CC1(C)OC2=C(C(=O)C(=O)c3ccccc32)[C@H](n2nncc2-c2ccccc2)[C@H]1Br | 125 | 1.23 | 0.41 | 0.47 | 0.66 | 0.77 | 1.59 | – | 0.8 - 3 | 0.8 - 3 | 0.8 - 3 | 0.8 - 3 | 0.8 - 3
O=C1C(=O)c2ccccc2C2=C1CC(Cn1cc(C3(O)CCCCC3)nn1)O2 (configuration not stated) | – | > 13.2 | 12.4 | 12.7 | 11 | 10.2 | 11.1 | 89.5 | – | – | – | – | –
O=C1C(=O)c2ccccc2C2=C1CC(Cn1cc(C3=CCCCC3)nn1)O2 (configuration not stated) | – | 5.31 | 4.37 | 3.98 | 3.29 | 2.68 | 2.32 | 55.3 | – | – | – | – | –
O=C1C(=O)c2ccccc2C2=C1CC(Cn1nncc1-c1ccccc1)O2 (configuration not stated) | > 1000 | 5.71 | 6.91 | 4.84 | 4.11 | 6.13 | 7.78 | – | – | – | – | – | –
CC1(C)OC2=C(C(=O)C(=O)c3ccccc32)[C@H](n2nnc(-c3ccccc3)c2I)[C@H]1Br | > 1000 | > 8.48 | > 8.48 | > 8.48 | > 8.48 | > 8.48 | > 8.48 | – | – | – | – | – | –
O=C1C(=O)c2ccccc2C2=C1CC(Cn1nnc(-c3ccccc3)c1-c1ccccc1)O2 (configuration not stated) | > 1000 | 2.16 | 1.29 | 1.68 | 1.15 | 1.17 | 1.43 | – | – | – | – | – | –
CCCCCCc1cn(CC2CC3=C(O2)c2ccccc2C(=O)C3=O)nn1 (configuration not stated) | – | 5.99 | 3.42 | 2.13 | 2.02 | 1.91 | 2.7 | 86.7 | – | – | – | – | –
CC1(C)OC2=C(C(=O)c3ccccc3C2=O)C1n1nnc(-c2ccccc2)c1I (configuration not stated) | > 1000 | 7.86 | 5.73 | 5.17 | 4.22 | 5.69 | 4.58 | – | – | – | – | – | –
O=C1C(=O)c2ccccc2C2=C1CC(Cn1cc(-c3ccccc3)nn1)O2 (configuration not stated) | > 1000 | 3.24 | 2.07 | 2.4 | 3.55 | 3.08 | 3.24 | – | – | – | – | – | –
CC1(C)OC2=C(C(=O)c3ccccc3C2=O)C1n1nncc1-c1ccccc1 (configuration not stated) | > 1000 | 7.57 | 3.07 | 2.5 | 2.55 | 3.71 | 2.8 | – | – | – | – | – | –
O=C1C2=C(OC(Cn3cc(-c4ccccc4)nn3)C2)C(=O)c2ccccc21 (configuration not stated) | > 1000 | > 14 | > 14 | 8.7 | 7.95 | > 14 | > 14 | – | – | – | – | – | –
O=C1C2=C(OC(Cn3nnc(-c4ccccc4)c3I)C2)C(=O)c2ccccc21 (configuration not stated) | > 1000 | > 10.3 | > 10.3 | 6.04 | 5.4 | > 10.3 | > 10.3 | – | – | – | – | – | –
CC1(C)OC2=C(C(=O)C(=O)c3ccccc32)C1n1nnc(-c2ccccc2)c1I (configuration not stated) | > 1000 | 4.08 | 2.77 | 3.35 | 2.59 | 3.05 | 2.83 | – | – | – | – | – | –
CC1(C)OC2=C(C(=O)C(=O)c3ccccc32)C1n1nncc1-c1ccccc1 (configuration not stated) | 113 | 2.02 | 1.34 | 1.37 | 1.48 | 1.75 | 2.37 | – | 1.5 | – | – | – | –
O=C1C2=C(OC(Cn3nncc3-c3ccccc3)C2)C(=O)c2ccccc21 (configuration not stated) | > 1000 | > 14 | > 14 | 3.36 | 3.02 | > 14 | > 14 | – | – | – | – | – | –
CC1(C)CC(n2nncc2-c2ccccc2)C2=C(O1)C(=O)c1ccccc1C2=O (configuration not stated) | > 1000 | > 13 | > 13 | > 13 | > 13 | > 13 | > 13 | – | – | – | – | – | –
